Source: patent US9428507B2, “Compounds for the treatment of malaria” (The Broad Institute, Inc., priority 2013, dated 2016)

Test system: Dd2 strain of P. falciparum
Assay: Activity against the Dd2 strain of P. falciparum (SYBR Green I, 72-h incubation)
Format: cell-based
Settings: Plasmodium falciparum, DD2, 72 h, read-out: EC^50 Dd2
Method: The Dd2 strain of P. falciparum was cultured in complete medium (RPMI with L-glutamine, 4.3% heat-inactivated O-positive human serum, 2.08 mg/ml albumax, 0.013 mg/ml hypoxanthine, 1.17 mg/ml glucose, 0.18% NaHCO3, 0.031 M Hepes, 2.60 mM NaOH, and 0.043 mg/ml gentamicin) until the parasitemia reached 3-8%. Parasitemia was determined by checking at least 500 red blood cells from a Giemsa-stained blood smear. The Dd2 cultures along with tested O-positive red blood cells are centrifuged at room temperature at 2,000 rpm for 5 min using an Eppendorf centrifuge 581 OR with an A-4-81 rotor. The medium was aspirated off. For the compound screening, a parasite dilution at a 1% parasitemia and 1.0% hematocrit was created with screening medium (RPMI with L-glutamine, 4.16 mg/ml albumax II, 0.013 mg/ml hypoxanthine, 1.73 mg/ml glucose, 0.18% NaHCO3, 0.031M Hepes, 2.60 mM NaOH, and 0.043 mg/ml gentamicin). The suspension was gassed with 93% nitrogen, 4% carbon dioxide, and 3% oxygen and placed at 37° C. until needed. Using a liquid dispenser, 20 μl of screening medium was dispensed into 384-well, black, clear-bottom plates. With a PinTool, 100 nl of compounds dissolved in DMSO was transferred into the assay plates along with control compound (mefloquine). Next, 30 μl of the parasite suspension in screening medium was then dispensed into the assay plates such that the final parasitemia was 1%, and the final hematocrit was 1.0%. Final concentration of DMSO was 0.125%. Mefloquine at a final concentration of 20 μM and DMSO at a final concentration of 0.125% were used within the assay plates to serve as background and baseline controls, respectively. The assay plates were transferred to incubators (93% nitrogen, 4% carbon dioxide, and 3% oxygen during the 72-h incubation at 37° C.). Ten microliters of detection reagent consisting of 1 OX SYBR Green I (Invitrogen; supplied in 10,000× concentration) in lysis buffer (20 mM Tris-HCl, 5 mM EDTA, 0.16% Saponin wt/vol, 1.6% Triton X vol/vol) was dispensed into the assay plates. For optimal staining, the assay plates were left at room temperature for 24 h in the dark. The assay plates were read by using an Envision (PerkinElmer) reader, with 505 dichroic mirrors with 485-nm excitation and 530-nm emission settings, and the plate reads were from the bottom.

Row | SMILES | EC50
1 | COc1ccc2c3c([nH]c2c1)[C@H](CO)N(C(=O)Cc1ccccc1)CC31CCN(C(=O)Nc2ccccc2F)CC1 [Compound 105, (R)-N-(2-fluorophenyl)-1′-(hydroxymethyl)-7′-methoxy-2′-(2-phenylacetyl)-1′,2′,3′,9′-tetrahydrospiro [piperidine-4,4′-pyrido[3,4-b]indole]-1-carboxamide] | 269 nM
2 | COc1ccc2c3c([nH]c2c1)[C@H](CO[Si](C)(C)C(C)(C)C)N(C(=O)C(C)(C)C)CC31CCN(C(=O)Nc2ccccc2F)CC1 [Compound 22, (R)-1′-(((tert-butyldimethylsilyl)oxy)methyl)-N-(2-fluorophenyl)-7′-methoxy-2′-pivaloyl-l′,2′,3′,9′-tetrahydrospiro[piperidine-4,4′-pyrido[3,4-b]indole]-1-carboxamide] | 430 nM
3 | COc1ccc2c3c(n(C)c2c1)[C@@H](CO)N(C(=O)c1ccc(F)cc1)CC31CN(C(=O)Nc2ccc(F)cc2)C1 [Compound 108, (S)-2′-(4-fluorobenzoyl)-N-(4-fluorophenyl)-1′-(hydroxymethyl)-7′-methoxy-9′-methyl-1′,2′,3′,9′-tetrahydrospiro[azetidine-3,4′-pyrido[3,4-b]indole]-1-carboxamide] | 1220 nM
4 | COc1ccc2c3c([nH]c2c1)[C@H](CO)N(C(C)=O)CC31CCN(C(=O)Nc2ccc(F)cc2)CC1 [Compound 8, (R)-2′-acetyl-N-(4-fluorophenyl)-1′-(hydroxymethyl)-7′ -methoxy-1′,2′,3′,9′-tetrahydrospiro[piperidine-4,4′-pyrido[3,4-b]indole]-1-carboxamide] | 1770 nM
5 | COc1ccc(NC(=O)N2CCC3(CC2)CN(C(=O)C2CCC2)[C@H](CO)c2c3c3ccc(OC)cc3n2C)cc1 [Compound 86, (S)-2′-(cyclobutanecarbonyl)-1′-(hydroxymethyl)-7′-methoxy-N-(4-methoxyphenyl)-9′-methyl-1′,2′,3′,9′-tetrahydrospiro [piperidine-4,4′-pyrido[3,4-b]indole]-1-carboxamide] | 96 nM
6 | COc1ccc2c3c(n(C)c2c1)[C@@H](CO)N(C(=O)c1ccc(F)cc1)CC31CCN(C(=O)Nc2ccc(F)cc2)CC1 [Compound 129] | 794 nM
7 | COc1ccc2c3c([nH]c2c1)[C@H](CO)N(C(C)=O)CC31CCN(C(=O)c2ccccc2F)CC1 [Compound 41, (R)-1-(1-(2-fluorobenzoyl)-1′-(hydroxymethyl)-7′-methoxyspiro[piperidine-4,4′-pyrido[3,4-b]indol]-2′(1′H,3′H,9′H)-yl)ethanone] | 17500 nM
8 | CCCC(=O)N1CC2(C1)CN(S(=O)(=O)c1ccc(C)cc1)[C@@H](CO)c1[nH]c3cc(OC)ccc3c12 [Compound 120, (R)-1-(1′-(hydroxymethyl)-7′-methoxy-2′-tosyl-1′,2′,3′,9′-tetrahydrospiro[azetidine-3,4′-pyrido[3,4-b]indol]-1-yl)butan-1-one] | 1650 nM
9 | COCCOCOC[C@H]1c2[nH]c3cc(OC)ccc3c2C2(CCN(C(=O)Nc3ccccc3F)CC2)CN1C(C)=O [Compound 64, (R)-2′-acetyl-N-(2-fluorophenyl)-7′-methoxy-1′-(((2-methoxyethoxy)methoxy)methyl)-1′,2′,3′,9′-tetrahydrospiro[piperidine-4,4′-pyrido[3,4-b]indole]-1-carboxamide] | 3620 nM
10 | COc1ccc2c3c([nH]c2c1)[C@H](CO)N(C(C)=O)CC31CCN(C(=O)Nc2ccccc2Cl)CC1 [Compound 1, (R)-2′-acetyl-N-(2-chlorophenyl)-1′-(hydroxymethyl)-7′ -methoxy-1′,2′,3′,9′-tetrahydrospiro [piperidine-4,4′-pyrido [3,4-b]indole]-1-carboxamide] | 214 to 345 nM
11 | C=CCOC(=O)N1CC2(CCN(C(=O)Oc3ccc([N+](=O)[O-])cc3)CC2)c2c([nH]c3cc(OC)ccc23)[C@@H]1CO [Compound 28, (R)-2′-allyl 1-(4-nitrophenyl) 1′-(hydroxymethyl)-7′-methoxy-3′,9′-dihydrospiro[piperidine-4,4′-pyrido[3,4-b]indole]-1,2′(1′H)-dicarboxylate] | 7140 nM
12 | COc1ccc2c3c([nH]c2c1)[C@H](CO)N(C(C)=O)CC31CCN(c2nc3ccccc3o2)CC1 [Compound 77, (R)-1-(1-(benzo[d]oxazol-2-yl)-1′-(hydroxymethyl)-7′-methoxyspiro [piperidine-4,4′-pyrido[3,4-b]indol]-2′(1′H,3′H,9′H)-yl)ethanone] | 8500 nM
13 | COc1ccc2c3c([nH]c2c1)[C@H](CC(F)(F)F)N(C(C)=O)CC31CCN(C(=O)Nc2ccccc2F)CC1 [Compound 74, (S)-2′-acetyl-N-(2-fluorophenyl)-7′-methoxy-1′-(2,2,2-trifluoroethyl)-1′,2′,3′,9′-tetrahydrospiro[piperidine-4,4′-pyrido[3,4-b]indole]-1-carboxamide] | 30 to 130 nM
14 | COc1ccc2c3c([nH]c2c1)[C@H](CO)N(C(=O)CN(C)C)CC31CCN(CC2CCCCC2)CC1 [Compound 89, (R)-1-(1-(cyclohexylmethyl)-1′-(hydroxymethyl)-7′-methoxyspiro [piperidine-4,4′-pyrido[3,4-b]indol]-2′(1′ H,3′H,9′H)-yl)-2-(dimethylamino)ethanone] | 432 nM
15 | CCCC(=O)N1CC2(CCN(C(=O)Nc3ccccc3F)CC2)c2c([nH]c3cc(OC)ccc23)[C@@H]1CO [Compound 36, (R)-2′-butyryl-N-(2-fluorophenyl)-1′-(hydroxymethyl)-7′-methoxy-1′,2′,3′,9′-tetrahydrospiro[piperidine-4,4′-pyrido[3,4-b]indole]-1-carboxamide] | 423 nM
16 | COc1ccc2c3c([nH]c2c1)[C@H](CO)N(C(C)=O)CC31CCNCC1 [Compound 4, (R)-1-(1′-(hydroxymethyl)-7′-methoxyspiro [piperidine-4,4′-pyrido[3,4-b]indol]-2′(1′H,3′H,9′H)-yl)ethanone] | 10700 nM
17 | COc1ccc2c3c([nH]c2c1)[C@H](CO)N(S(=O)(=O)c1ccccc1)CC31CCN(C(=O)Nc2ccccc2F)CC1 [Compound 147, (R)-N-(2-fluorophenyl)-1′-(hydroxymethyl)-7′-methoxy-2′-(phenylsulfonyl)-1′,2′,3′,9′-tetrahydrospiro [piperidine-4,4′-pyrido+[,4-b]indole]-1-carboxamide] | 391 nM
18 | COc1ccc2c3c([nH]c2c1)[C@H]1COCC(=O)N1CC31CCN(C(=O)Nc2ccccc2F)CC1 [Compound 140, (S)-N-(2-fluorophenyl)-10-methoxy-4-oxo-1,3,4,6,12,12b-hexahydrospiro [[1,4]oxazino[4′,3′:1 ,2]pyrido[3,4-b]indole-7,4′-piperidine]-1′-carboxamide] | 2470 nM
19 | COc1ccc(CN2CC3(C2)CN(C(=O)CN(C)C)[C@H](CO)c2[nH]c4cc(OC)ccc4c23)cc1 [Compound 97, (S)-2-(dimethylamino)-1-(1′-(hydroxymethyl)-7′-methoxy-1-(4-methoxybenzyl)spiro[azetidine-3,4′-pyrido[3,4-b]indol]-2′(1′H,3′H,9′H)-yl)ethanone] | 1640 nM
20 | COc1cccc(S(=O)(=O)N2CCC3(CC2)CN[C@H](CO)c2[nH]c4cc(OC)ccc4c23)c1 [Compound 84, (S)-(7′-methoxy-1-((3-methoxyphenyl)sulfonyl)-1′,2′,3′,9′-tetrahydrospiro [piperidine-4,4′-pyrido[3,4-b]indol]-1′-yl)methanol] | 2530 nM
